Test results published in the supplement of paper PMC4862054.

Experiments:
Settings in all cases: 72 h
BT-474 [1] = tested on: BT-474
Summary of the method: (§1)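 The plates used were 384-well plates holding compound at 5 concentrations in 10-fold steps across a compound-specific 10,000-fold range, into which breast cancer cell lines were seeded in 20 µl suspension. Following 72 h incubation, CellTox Green fluorescence was read at 485/520 nm, and CellTiter-Glo luminescence was read after 10 min at room temperature. Normalisation on each plate used 0.1 % DMSO and a positive kill control. Dose-response curves gave the EC50, which was censored at the top concentration.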

BT-549 [2] = tested on: BT-549
Summary of the method: as §1

CAL-85-1 [3] = tested on: CAL-85-1
Summary of the method: as §1

DU-4475 [4] = tested on: DU-4475
Summary of the method: as §1

HCC1599 [5] = tested on: HCC1599
Summary of the method: as §1

HCC1937 [6] = tested on: HCC1937
Summary of the method: as §1

Hs578T [7] = tested on: Hs578T
Summary of the method: as §1

MCF-10A [8] = tested on: MCF-10A
Summary of the method: as §1

MDA-MB-231 [9] = tested on: MDA-MB-231
Summary of the method: as §1

MDA-MB-453 [10] = tested on: MDA-MB-453
Summary of the method: as §1

MFM-223 [11] = tested on: MFM-223
Summary of the method: as §1

SK-BR-3 = tested on: SK-BR-3
Summary of the method: as §1

CAL-85-1 [12] = tested on: CAL-85-1; remark: listed apart in the source
Summary of the method: (§2)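 To measure viability, fluorescence at 560/590 nm was read after 2.5 µl CellTiter-Blue had been added for 2 h at 37 °C. Cells from breast cancer lines had been seeded in 20 µl suspension onto 384-well plates pre-loaded with compound dissolved in 5 µl medium and kept for 72 h. EC50 comes from a fitted percent-inhibition dose-response curve censored at the highest concentration, after per-plate normalisation to vehicle and a positive kill control, Z'-factor checks, and removal of rows with zero drug sensitivity score.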

DU-4475 [13] = tested on: DU-4475; remark: listed apart in the source
Summary of the method: as §2

HDQ-P1 [14] = tested on: HDQ-P1
Summary of the method: as §2

MDA-MB-453 [15] = tested on: MDA-MB-453; remark: listed apart in the source
Summary of the method: as §2

BT-474 [16] = tested on: BT-474; remark: listed apart in the source
Summary of the method: as §2

BT-549 [17] = tested on: BT-549; remark: listed apart in the source
Summary of the method: as §2

CAL-120 [18] = tested on: CAL-120
Summary of the method: as §2

HCC1937 [19] = tested on: HCC1937; remark: listed apart in the source
Summary of the method: as §2

MDA-MB-231 [20] = tested on: MDA-MB-231; remark: listed apart in the source
Summary of the method: as §2

MDA-MB-436 [21] = tested on: MDA-MB-436
Summary of the method: as §2

MDA-MB-468 [22] = tested on: MDA-MB-468
Summary of the method: as §2

MFM-223 [23] = tested on: MFM-223; remark: listed apart in the source
Summary of the method: as §2

BT-474 [24] = tested on: BT-474; remark: listed apart in the source
Summary of the method: as §1

CAL-85-1 [25] = tested on: CAL-85-1; remark: listed apart in the source
Summary of the method: as §1

DU-4475 [26] = tested on: DU-4475; remark: listed apart in the source
Summary of the method: as §1

HCC1599 [27] = tested on: HCC1599; remark: listed apart in the source
Summary of the method: as §1

HCC1937 [28] = tested on: HCC1937; remark: listed apart in the source
Summary of the method: as §1

Hs578T [29] = tested on: Hs578T; remark: listed apart in the source
Summary of the method: as §1

MCF-10A [30] = tested on: MCF-10A; remark: listed apart in the source
Summary of the method: as §1

MDA-MB-231 [31] = tested on: MDA-MB-231; remark: listed apart in the source
Summary of the method: as §1

MDA-MB-453 [32] = tested on: MDA-MB-453; remark: listed apart in the source
Summary of the method: as §1

MFM-223 [33] = tested on: MFM-223; remark: listed apart in the source
Summary of the method: as §1

CAL-120 [34] = tested on: CAL-120; remark: listed apart in the source
Summary of the method: as §1

CAL-148 [35] = tested on: CAL-148
Summary of the method: as §1

CAL-51 = tested on: CAL-51
Summary of the method: as §1

HCC1143 [36] = tested on: HCC1143
Summary of the method: as §1

HDQ-P1 [37] = tested on: HDQ-P1; remark: listed apart in the source
Summary of the method: as §1

MDA-MB-436 [38] = tested on: MDA-MB-436; remark: listed apart in the source
Summary of the method: as §1

MDA-MB-468 [39] = tested on: MDA-MB-468; remark: listed apart in the source
Summary of the method: as §1

Hs578T [40] = tested on: Hs578T; remark: listed apart in the source
Summary of the method: as §2

BT-549 [41] = tested on: BT-549; remark: listed apart in the source
Summary of the method: as §1

CAL-120 [42] = tested on: CAL-120; remark: listed apart in the source
Summary of the method: as §1

CAL-148 [43] = tested on: CAL-148; remark: listed apart in the source
Summary of the method: as §1

HCC1143 [44] = tested on: HCC1143; remark: listed apart in the source
Summary of the method: as §1

HDQ-P1 [45] = tested on: HDQ-P1; remark: listed apart in the source
Summary of the method: as §1

MDA-MB-436 [46] = tested on: MDA-MB-436; remark: listed apart in the source
Summary of the method: as §1

MDA-MB-468 [47] = tested on: MDA-MB-468; remark: listed apart in the source
Summary of the method: as §1

SMILES	EC50, CellTiter-Glo (BT-474 [1])	EC50, CellTiter-Glo (BT-549 [2])	EC50, CellTiter-Glo (CAL-85-1 [3])	EC50, CellTiter-Glo (DU-4475 [4])	EC50, CellTiter-Glo (HCC1599 [5])	EC50, CellTiter-Glo (HCC1937 [6])	EC50, CellTiter-Glo (Hs578T [7])	EC50, CellTiter-Glo (MCF-10A [8])	EC50, CellTiter-Glo (MDA-MB-231 [9])	EC50, CellTiter-Glo (MDA-MB-453 [10])	EC50, CellTiter-Glo (MFM-223 [11])	EC50, CellTiter-Glo (SK-BR-3)	EC50, CellTiter-Blue viability (HCC1937 [19])	EC50, CellTox Green (BT-474 [24])	EC50, CellTox Green (CAL-85-1 [25])	EC50, CellTox Green (DU-4475 [26])	EC50, CellTox Green (HCC1599 [27])	EC50, CellTox Green (HCC1937 [28])	EC50, CellTox Green (Hs578T [29])	EC50, CellTox Green (MCF-10A [30])	other results
CCN(CC)CCOc1ccc(C(=C(Cl)c2ccccc2)c2ccccc2)cc1 [Clomifene]	3.94 µM	1.98 µM	2.39 µM	3.46 µM	2.83 µM	2.9 µM	2.76 µM	9.4 µM	3.54 µM	2.91 µM	6.66 µM	6 µM	9.53 µM	3.47 µM	6.28 µM	5.82 µM	9.79 µM	1.77 µM	2.26 µM	1.01 µM	EC50, CellTiter-Blue viability (CAL-85-1 [12]): 9.27 µM; EC50, CellTiter-Blue viability (DU-4475 [13]): 7.32 µM; EC50, CellTiter-Blue viability (HDQ-P1 [14]): 9.48 µM; EC50, CellTiter-Blue viability (MDA-MB-453 [15]): 4.99 µM; EC50, CellTiter-Blue viability (BT-474 [16]): 5.53 µM; EC50, CellTiter-Blue viability (BT-549 [17]): 3.25 µM; EC50, CellTiter-Blue viability (CAL-120 [18]): 4.6 µM; EC50, CellTiter-Blue viability (MDA-MB-231 [20]): 2.83 µM; EC50, CellTiter-Blue viability (MDA-MB-436 [21]): 6.85 µM; EC50, CellTiter-Blue viability (MDA-MB-468 [22]): 3.63 µM; EC50, CellTiter-Blue viability (MFM-223 [23]): 6.93 µM; EC50, CellTox Green (MDA-MB-231 [31]): 1.99 µM; EC50, CellTox Green (MDA-MB-453 [32]): 5.67 µM; EC50, CellTox Green (MFM-223 [33]): 0.522 µM
N[C@@H](Cc1ccc(N(CCCl)CCCl)cc1)C(=O)O [Melphalan]	0.313 µM	0.758 µM	0.444 µM	0.322 µM	0.467 µM	0.235 µM	0.518 µM	0.424 µM	0.237 µM	0.213 µM	0.31 µM	0.247 µM	0.0855 µM	0.347 µM	0.392 µM	1.29 µM	0.726 µM	0.613 µM	1.11 µM	0.275 µM	EC50, CellTiter-Glo (CAL-120 [34]): 1.22 µM; EC50, CellTiter-Glo (CAL-148 [35]): 0.268 µM; EC50, CellTiter-Glo (CAL-51): 0.182 µM; EC50, CellTiter-Glo (HCC1143 [36]): 0.739 µM; EC50, CellTiter-Glo (HDQ-P1 [37]): 0.297 µM; EC50, CellTiter-Glo (MDA-MB-436 [38]): 0.501 µM; EC50, CellTiter-Glo (MDA-MB-468 [39]): 0.203 µM; EC50, CellTiter-Blue viability (Hs578T [40]): 0.222 µM; EC50, CellTox Green (BT-549 [41]): 0.778 µM; EC50, CellTox Green (CAL-120 [42]): 1.79 µM; EC50, CellTox Green (CAL-148 [43]): 0.354 µM; EC50, CellTox Green (HCC1143 [44]): 2.91 µM; EC50, CellTox Green (HDQ-P1 [45]): 0.363 µM; EC50, CellTox Green (MDA-MB-231 [31]): 0.129 µM; EC50, CellTox Green (MDA-MB-436 [46]): 2.3 µM; EC50, CellTox Green (MDA-MB-453 [32]): 0.419 µM; EC50, CellTox Green (MDA-MB-468 [47]): 0.293 µM; EC50, CellTox Green (MFM-223 [33]): 0.514 µM
